Test results taken from article PMC9148072, “Design, Cytotoxicity and Antiproliferative Activity of 4-Amino-5-methyl-thieno[2,3-d]pyrimidine-6-carboxylates against MFC-7 and MDA-MB-231 Breast Cancer Cell Lines” (Molecules, 2022).
Converted amounts (≈) assume the structure as drawn. Read-outs that look alike come from different tables or passages of the source.

Tests used:
[1] = 3T3 Neutral Red Uptake (NRU) cytotoxicity test; assay type: cell-based, mouse; details: mouse, BALB/3T3 clone A31 cells; for CC50 at 24 h: BALB 3T3, 24 h, no irradiation, read-out: CC50 of Mean ± SD, Cytotoxicity
[2] = 3T3 NRU phototoxicity test (irradiated); assay type: cell-based, mouse; details: mouse, BALB/3T3 clone A31 cells; BALB 3T3, irradiated 2.4 J/cm2, then 24 h; read-out: CC50 of Mean ± SD, Phototoxicity
Text: (§1) Some organic compounds exposed to sunlight can be converted into phototoxins as a result of light-induced changes in energy state or degradation of the molecule. The estimation of phototoxicity can serve as an indicator of the photostability of the studied thienopyrimidines when irradiated with UV light and as evidence that their effect on cells is only due to the cytotoxicity and not to phototoxicity. The compounds were studied for cytotoxicity by the 3T3 Neutral Red […] (NRU) phototoxicity test based on a comparison of the cytotoxicity of a chemical when tested in the presence and absence of noncytotoxic exposure to UVA/vis light. The cells were incubated with the test substances at a variable concentration: for compound 4 from 0.5 to 100 μg/mL, and for all the rest from 15 to 4000 μg/mL for 24 h.
(§2) The light source used was a light emitting diode (LED) matrix, an artificial solar light simulator Helios-iO, model LE-9ND55-H—5500K (SERIC Ltd., Tokyo, Japan).
(§3) BALB/3T3 cells were cultured in 75 cm^2 tissue-culture flasks in DMEM, 10% FBS, 2 mM glutamine and antibiotics (penicillin 100 U/mL and streptomycin 100 µg/mL) at 37 °C, 5% CO2 and 90% relative humidity. Cytotoxicity/phototoxicity was assessed by validated BALB/3T3 clone A31 Neutral Red Uptake Assay (3T3 NRU test). Briefly, cells were plated in a 96-well microtiter plate at a density of 1 × 10^4 cells/100 µL/well and were incubated for 24 h. A wide concentration range of the test compounds was applied. In phototoxicity tests, 96-well plates were irradiated with dose 2.4 J/cm^2 and the cells were incubated for additional 24 h. After treatment with Neutral Red medium, washing and treatment with the Ethanol/Acetic acid solution, the absorption was measured on a TECAN microplate reader (TECAN, Grödig, Austria) at wavelength 540 nm.
(§4) Cytotoxicity/phototoxicity were expressed as CC50/PC50 values (concentrations required for 50% cytotoxicity/phototoxicity), calculated using nonlinear regression analysis (GraphPad Software, Prism 8.0.2 (263), San Diego, CA, USA). The CC50 values can be used to calculate the PIF (photoirritancy factor) for each test substance, according to the following formula:PIF = Cytotoxicity (CC50)/Phototoxicity (PC50)(6)

[3] = system: MCF-10A cell line; test: MTT antiproliferative assay, MCF-10A; assay type: cell-based; details: Homo sapiens, 72 h
Method: (§5) The compounds were studied for antiproliferative activity by standard MTT dye-reduction assay. Cell cultures from MCF-10A, MCF-7 and MDAMB-231 cell lines were incubated for 72 h in the presence of the tested substances in a wide range of concentrations. At the MCF-10A and MDA-MB-231 cell lines, compound 4 was applied in the range from 0.5 to 100 µg/mL, and all others from 4 to 1000 µg/mL.
In order to determine antitumor activity, as a reliable model and a control we used the MCF-10A cell line (normal human mammary epithelial cells).
(§6) All breast cell lines (MCF-10A, MCF-7 and MDA-MB-231) were purchased from the American Type Culture Collection—ATCC (Manassas, VA, USA). The MCF-7 and MDA-MB-231 were cultivated in Dulbecco’s Modified Eagle’s Medium (DMEM) supplemented with 10% fetal bovine serum (FBS), 1% sodium pyruvate, 1% MEM nonessential amino acids (NEAA) without antibiotics. The nontumorigenic breast cell line (MCF-10A) was cultivated in DMEM medium (Sigma-Aldrich, St. Louis, MO, USA) supplemented with 10% FBS, 1% sodium pyruvate, 1% nonessential amino acids (NEAA), 20 ng/mL human epithelia growth factor (hEGF), 10 μg/mL insulin, and 0.5 μg/mL hydrocortisone without antibiotics. All cell lines were maintained in a humidified atmosphere with 5% CO2 at 37 °C.
(§7) Using the standard MTT dye-reduction assay, described by Mosmann the antiproliferative activity was tested. The method is based on the metabolism of the tetrazolium salt MTT to insoluble formazan. The formazan absorption was registered using a microplate reader at λ = 540 nm. The measured absorption is an indicator of cell viability and metabolic activity. Antiproliferative activities were expressed as IC50 values (concentrations required for 50% inhibition of cell growth), calculated using nonlinear regression analysis (GraphPad Software, San Diego, CA, USA).

[4] = system: MCF-7 cell line; test: MTT antiproliferative assay, MCF-7; assay type: cell-based, human; details: for IC50: Homo sapiens, MCF7
Method: as §5
The MCF-7 cell line was treated with compounds 2, 3 and 4 at concentrations from 0.5 to 100 µg/mL, and all others from 4 to 1000 µg/mL. The antiproliferative activity expressed in % relative to the negative control (untreated cells accepted as a 100% viable or 0% antiproliferative activity) was determined and shown on Figure 6.
as §6, §7

[5] = system: MDA-MB-231 cell line; test: MTT antiproliferative assay, MDA-MB-231; assay type: cell-based, human; details: for IC50: MDA-MB-231, 72 h, MTT
Method: as §5, §6, §7

[6] = system: BALB 3T3 cells; test: 3T3 NRU phototoxicity test (irradiated); assay type: cell-based, mouse; details: CC50/PC50; PIF < 2 not phototoxic, ≥ 2 and < 5 probable phototoxicity, ≥ 5 phototoxic
Text: as §1, §2, §3, §4

[7] = system: MCF-7; details: results published earlier, read-out: IC50 (MCF-7) of lead compounds A and B; cited from earlier work
[8] = system: MDA-MB-231; details: results published earlier, read-out: IC50 (MDA-MB-231) of lead compounds A and B; cited from earlier work
[9] = system: BALB 3T3 cells; test: 3T3 Neutral Red Uptake (NRU) cytotoxicity test; assay type: cell-based, mouse; details: BALB 3T3, 15 to 4000 µg/mL, 24 h
[10] = system: VEGER; set-up: method as in PMID 30343204; details: Figure 1; cited from earlier work
[11] = target: Aurora B kinase; set-up: method as in PMID 21778056; details: Figure 1; read-out: Aur B IC50; cited from earlier work
[12] = system: FGFR1; details: Figure 1; cited from earlier work
[13] = system: ABC efflux pumps; set-up: method as in PMID 19783433; details: Figure 1; read-out: EC50 in the daunorubicin accumulation assay; cited from earlier work
[14] = read-out: IC50 Antiproliferative Activity MCF-10A (converted)
[15] = read-out: IC50 ± SD Antiproliferative Activity MCF-10A
[16] = MCF-7, 72 h, MTT, read-out: IC50 Antiproliferative Activity MCF-7 in µM (converted)
[17] = MCF-7, 72 h, MTT, read-out: IC50 ± SD Antiproliferative Activity MCF-7
[18] = Homo sapiens, read-out: IC50 Antiproliferative Activity MDA-MB-231 in µM (converted)
[19] = Homo sapiens, read-out: IC50 ± SD Antiproliferative Activity MDA-MB-231

IC50 [4, 16] | IC50 [4, 17] | IC50 [5, 18] | IC50 [5, 19] | Structure (SMILES) | CC50 at 24 h [1] | IC50 [3, 14] | IC50 [3, 15] | further results
23 µM | 8.58 ± 0.55 µg/mL | 250 µM | 98.2 ± 4.73 µg/mL | CCOC(=O)c1sc2nc(Cc3ccc([N+](=O)[O-])cc3)nc(N)c2c1C [Compound 3, Ethyl 4-Amino-5-methyl-2-(4-nitrobenzyl) Thieno [2,3-d] Pyrimidine-6-carboxylate] | 1160 ± 57.8 µg/mL (≈ 3100 µM) | 440 µM | 165 ± 8.81 µg/mL | CC50 at 24 h [2]: 578 ± 58.7 µg/mL (≈ 1550 µM); IC50 ([5]; read-out: IC50 Antiproliferative Activity MDA-MB-231 in µM (converted)): 260 µM
5 µM | 2.01 ± 0.07 µg/mL | 16 µM | 6.43 ± 0.95 µg/mL | CCOC(=O)c1sc2nc(-c3cc(OC)c(OC)c(OC)c3)nc(N)c2c1C [Compound 4, Ethyl 4-Amino-5-methyl-2-(3,4,5-trimethoxyphenyl)thieno [2,3-d]Pyrimidine-6-carboxylate] | 8.37 ± 0.6 µg/mL (≈ 20.7 µM) | 6.8 µM | 2.74 ± 0.13 µg/mL | CC50 at 24 h [2]: 11.8 ± 0.8 µg/mL (≈ 29.4 µM); PIF (Photoirritancy factor) [6]: 0.7
– | – | – | – | CCOC(=O)c1sc2nc(CCn3c(=N)n(CCc4nc5sc(C(=O)OC)c(C)c5c(=O)[nH]4)c4ccccc43)[nH]c(=O)c2c1C [A] | – | – | – | IC50 ([4]; read-out: pCI50 in MCF-7 test (converted)): 0.0741 µM; IC50 [7]: 0.074 µM; IC50 [8]: 0.16 µM
1410 µM | 444 ± 9.2 µg/mL | 370 µM | 116 ± 9.63 µg/mL | CCOC(=O)c1sc2nc(-c3ccncc3)nc(N)c2c1C.Cl [Compound 6, Ethyl 4-Amino-5-methyl-2-(pyridin-4-yl)thieno[2,3-d]pyrimidine-6-carboxylate hydrochloride] | > 4000 µg/mL | 1310 µM | 411 ± 5.1 µg/mL | IC50 at 24 h ([1]; BALB 3T3, converted from µg/mL, read-out: IC50 cytotoxicity against BALB 3T3): > 13000 µM; cytotoxicity versus BALB 3T3 cells (in words) [9]: not cytotoxic; Selective Index MCF-7 ([4]; SI = IC50 of MCF-10A/IC50 of MCF-7): 0.92; Selective Index MDA-MB-231 ([5]; SI = IC50 of MCF-10A/IC50 of MDA-MB-231): 3.54; melting point: 259 to 261 °C
– | – | – | – | CC(=O)c1cccc(NC(=O)Nc2ccc(Nc3ncnc4sc5c(c34)CCCC5)cc2)c1 [VIII] | – | – | – | IC50 [10]: 1.5 µM
– | – | – | – | Cc1sc2ncnc(N)c2c1C(=O)Nc1ccc(NC(=O)Nc2ccccc2)cc1 [II] | – | – | – | IC50 [11]: 0.0002 µM
– | – | – | – | Oc1cccc(Nc2ncnc3scc(-c4ccccc4)c23)c1 [VI] | – | – | – | IC50 [12]: 0.18 µM
– | – | – | – | CCOC(=O)c1sc2nc(-c3cccnc3)nc(N)c2c1C [Compound 8, Ethyl 4-Amino-5-methyl-2-(pyridin-3-yl)thieno [2,3-d]Pyrimidine-6-carboxylate] | – | – | – | melting point: 241 to 242 °C
– | – | – | – | Nc1nc(SCCc2ccccc2)nc2sc3c(c12)CCCC3 [V] | – | – | – | EC50 [13]: 1.02 µM
